Read-outs that look alike come from different tables or passages of the source. Residues, ends and D or L forms follow the SMILES beside them. *: point of attachment. Decanoyl = CCCCCCCCCC(=O)*; CH2Cl = ClC*
What was measured:
SKI-1 [1] = target: T1, SKI-1 (Cricetulus griseus, UniProt Q9Z2A8); test: cell-based
T1 construct: endogenous in cells; host or cells: CHOK1
T1 sequence (Q9Z2A8 187-1052): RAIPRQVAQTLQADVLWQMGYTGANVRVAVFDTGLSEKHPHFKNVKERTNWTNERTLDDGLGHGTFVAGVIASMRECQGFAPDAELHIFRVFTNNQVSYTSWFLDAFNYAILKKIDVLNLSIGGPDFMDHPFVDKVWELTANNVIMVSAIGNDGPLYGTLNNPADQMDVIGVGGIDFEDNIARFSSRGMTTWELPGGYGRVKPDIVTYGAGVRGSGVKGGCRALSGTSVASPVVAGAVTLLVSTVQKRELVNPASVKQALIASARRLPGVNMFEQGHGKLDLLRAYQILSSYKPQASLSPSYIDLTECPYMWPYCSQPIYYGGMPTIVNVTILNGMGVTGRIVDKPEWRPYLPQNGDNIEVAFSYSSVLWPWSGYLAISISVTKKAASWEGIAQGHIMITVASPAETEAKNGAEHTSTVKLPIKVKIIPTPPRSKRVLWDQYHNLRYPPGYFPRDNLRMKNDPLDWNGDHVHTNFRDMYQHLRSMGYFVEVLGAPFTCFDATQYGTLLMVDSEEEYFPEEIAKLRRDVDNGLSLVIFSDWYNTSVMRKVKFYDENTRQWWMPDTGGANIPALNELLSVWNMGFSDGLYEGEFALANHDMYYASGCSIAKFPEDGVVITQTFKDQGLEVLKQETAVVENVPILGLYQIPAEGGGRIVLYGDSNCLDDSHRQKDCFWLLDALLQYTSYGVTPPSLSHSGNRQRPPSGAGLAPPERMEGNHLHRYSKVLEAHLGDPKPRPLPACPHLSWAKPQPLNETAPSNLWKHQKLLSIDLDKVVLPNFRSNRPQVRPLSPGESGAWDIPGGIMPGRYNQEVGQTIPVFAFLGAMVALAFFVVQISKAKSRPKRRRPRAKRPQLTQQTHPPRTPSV

[2] = target: T2, SKI-1 (endogenous enzyme of CHOK1 cells) (UniProt Q9Z2A8); test: cell-based or functional assay
T2 sequence: T1 sequence (Q9Z2A8 187-1052)

[3] = target: endogenous Furin-like PCs; test: cell-based or functional assay
SKI-1 [4] = target: T1, SKI-1; test: cell-based; design: species or system hamster
SKI-1 [5] = target: T3, SKI-1 (Homo sapiens, UniProt Q14703); type: cell-based
T3 construct: For SKI-1, several cell lines expressing SKI-1 could be used; endogenous in cells; host or cells: HuH7
T3 sequence (Q14703 187-1052): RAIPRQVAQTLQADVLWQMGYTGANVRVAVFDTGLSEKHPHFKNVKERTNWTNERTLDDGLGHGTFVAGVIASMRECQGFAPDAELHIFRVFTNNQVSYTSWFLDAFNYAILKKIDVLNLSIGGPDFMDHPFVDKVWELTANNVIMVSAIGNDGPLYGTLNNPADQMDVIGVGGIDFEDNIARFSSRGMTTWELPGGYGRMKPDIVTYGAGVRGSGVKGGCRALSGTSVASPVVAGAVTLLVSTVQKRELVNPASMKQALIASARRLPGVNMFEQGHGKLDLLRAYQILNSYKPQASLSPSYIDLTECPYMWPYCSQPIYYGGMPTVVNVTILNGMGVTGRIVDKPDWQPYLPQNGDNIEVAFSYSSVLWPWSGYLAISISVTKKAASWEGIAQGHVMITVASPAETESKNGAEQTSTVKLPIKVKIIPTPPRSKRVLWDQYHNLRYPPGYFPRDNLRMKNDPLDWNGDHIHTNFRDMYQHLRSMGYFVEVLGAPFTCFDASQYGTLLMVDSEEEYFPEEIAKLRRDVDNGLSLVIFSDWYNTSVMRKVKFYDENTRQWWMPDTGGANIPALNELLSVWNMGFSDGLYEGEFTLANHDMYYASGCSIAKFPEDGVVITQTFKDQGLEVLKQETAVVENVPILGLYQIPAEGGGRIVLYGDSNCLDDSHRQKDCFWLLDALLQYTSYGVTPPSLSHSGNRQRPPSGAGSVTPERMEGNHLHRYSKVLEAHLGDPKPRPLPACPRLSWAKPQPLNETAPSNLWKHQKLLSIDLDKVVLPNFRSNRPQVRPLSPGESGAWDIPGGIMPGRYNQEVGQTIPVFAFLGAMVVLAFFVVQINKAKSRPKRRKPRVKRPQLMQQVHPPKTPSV

[6] = tested on: endogenous Furin-like PCs; test: Ex vivo processing of proPDGF-A in HEK293 cells stably expressing PDGF-A-V5; type: cell-based, human
Furin-like PCs [7] = test: CELISA detection of HA tag on HeLa cells expressing Furin-like PC bait chimera; type: cell-based, human; details: for effect of serpin expression on presence of the HA tag at the cell surface: PCfur-1.6 cells transfected or adenovirus infected
Description: A CELISA test was then used to confirm the results obtained by the FACS analysis (FIG. 7A). Pools of cells transfected with the chimera were rinsed twice with PBS. Then, at room temperature, the following steps were performed. Cells were fixed in PBS and 4% formalin 10 min. They were then rinsed twice with PBS. The anti-HA/peroxidase antibody diluted 1/8000 in PBS and 1% powdered milk (filtered) was then added. The cells were incubated 30 minutes on Labquake™. Again, the cells were rinsed twice with PBS. The substrate (2,2′ azino-Bis (3-ethylobenzathiazoline-6-sulfonic acid); Sigma) was added to the cells and the mixture was incubated 15 minutes. The OD was read at 405 nm and 470 nm for turbidity, and the subtraction of the reading at both wavelengths (405-470) gave normalized product absorbance. The CELISA assay was performed in the presence of different concentrations of dec-RVKR-cmk (SEQ ID NO:35). The signal/noise ratio obtained in the presence of 60 μM of dec-RVKR-CMK (SEQ ID NO: 35) was above 15. The CELISA (FIG. 7B) confirmed that the presence of the inhibitor increases the detection of HA at the surface of the cells.
Some PCfur-1.6 cells were transfected with an expression vector containing a cDNA coding for either α1-PDX or the α1-AT using lipofectamine as described by the manufacturer (Invitrogen) (less than 20% efficacy), or infected using recombinant adenovirus (Ad) as described (Benjannet et al., 2004) (near 100% efficacy).

Furin-like PCs [8] = test: Western blot of cell-surface biotinylated proteins of PCfur-1.6 cells immunoprecipitated with HA antibody; type: cell-based, human; details: PCfur-1.6 cells infected with recombinant adenovirus, 1× and 2×
Source text: Similar confirmation was obtained using Western blots of cell-surface biotinylated proteins, immunoprecipitated with the HA-antibody and detected on Western using horseraddish peroxidase coupled streptavidin (WB streptavidin-HRP). The Western blot protocol used was a standard one using a monoclonal commercial anti-HA antibody coupled to horseraddish peroxidase (Sigma; used as proposed by the manufacturer) at a final dilution of 1:5000. […] This confirms that the HA reappears specifically in the presence of a PCs inhibitor. […] Small molecules were also identified with the assay (see Example 7).

Furin-like PCs [9] = test: FACS detection of HA tag on HeLa cells expressing Furin-like PC bait chimera; type: cell-based, human
Description: HeLa cells were submitted to two rounds of fluorescence activated cell sorting (FACS) using Alexa488™ as fluorophore with a MoFlo™ cell sorter (Cytomation, Fort Collins, Colo., USA) to obtain pools of cells expressing the Fc (Fc positive) but negative for the HA tag (HA negative) (FIG. 7A, darker dots). The presence of Fc tags was the sign that cleavage by Furin-like PCs at the bait sequence KRIRLRR←SPD (SEQ ID NO: 29) had released the HA tag.
This isolated pool of cells was incubated for 6 h with 60 μM of dec-RVKR-cmk (SEQ ID NO: 35), a potent PC-inhibitor, and submitted to FACS analysis.
The FACS sorted cells pool was then used to isolate individual clones: 10 clones were isolated of which one (clone PCfur-1.6) expresses a large amount of Fc (i.e. […] chimera) at the cell surface.

NARC-1/PCSK9 = test: Western blot of cells expressing NARC-1/PCSK9 bait (SN11) chimera; type: cell-based, human; details: 50 μM, 6 h
Source text: A specific CELISA to the NARC-1/PCSK9 was designed using the approach described in Example 1 above. Chimeras were constructed using sequences known to be cleavable by NARC-1/PCSK9 (SSVFAQ-SIPWN (SEQ ID NO: 31)), or EEDSSVFAQ-SIPWN (SEQ ID NO: 55) combined to full length ACE2-CT segment, and then used to transfect HuH7. Chimeras are also similarly constructed using KHQKLL-SIDLD (SEQ ID NO: 32)). HuH7 was selected amongst 20 cell lines as being one in which the NARC-1/PCSK9 expression level the highest.
Cells expressing chimera containing the NARC/PCSK9 bait SSVFAQ-SIPWN (SEQ ID NO: 31) (SN11) were analyzed by Western blot. Cells were treated or not for 6 h with 50 μM of dec-RVKR-cmk (SEQ ID NO: 35) to inhibit endogenous Furin-like enzymes and thus indirectly activate NARC/PCSK9. Cells express an approximately equal amounts of ER- (endo H sensitive, not shown) and Golgi-associated (endo H resistant, not shown) SN11 chimera as observed using an HA mAb. […] The Western blot protocol used was a standard one using a monoclonal commercial anti-HA antibody coupled to horseradish peroxidase (Sigma; used as proposed by the manufacturer) at a final dilution of 1:5000.

For `CCCCCCCCCC(=O)N[C@@H](CCCNC(=N)N)C(=O)N[C@@H](CCCNC(=N)N)C(=O)N[C@@H](CC(C)C)C(=O)N[C@@H](CC(C)C)C(=O)CCl` [dec-RRLL-cmk, reference compound] (Decanoyl-RRLL-CH2Cl), the IC50 (SKI-1 [1]) was ≤ 1 µM.
dec-ISRRLL-cmk (peptide) showed a 50% inhibition of the processing of endogenous proSREBP-2 in CHOK1 cells (Western blot) [2] of 20 µM.
For dec-RRLL-cmk (peptide), the inhibition of proPDGF-A processing in HEK293 cells (Western blot of media) [3] was > 100 µM.
Molecule `CCCCCCCCCC(=O)N[C@H](C(=O)N[C@@H](CO)C(=O)N[C@@H](CCCNC(=N)N)C(=O)N[C@@H](CCCNC(=N)N)C(=O)N[C@@H](CC(C)C)C(=O)N[C@@H](CC(C)C)C(=O)CCl)[C@@H](C)CC` [dec-ISRRLL-cmk] (Decanoyl-ISRRLL-CH2Cl) has an IC50 (SKI-1 [4]) of ~20 µM.
With `CCCCCCCCCC(=O)N[C@@H](Cc1ccc(O)cc1)C(=O)N[C@H](C(=O)N[C@@H](CO)C(=O)N[C@@H](CCCNC(=N)N)C(=O)N[C@@H](CCCNC(=N)N)C(=O)N[C@@H](CC(C)C)C(=O)N[C@@H](CC(C)C)C(=O)CCl)[C@@H](C)CC` [dec-YISRRLL-cmk] (Decanoyl-YISRRLL-CH2Cl) the “re-appearance of the HA tag at the cell surface (FACS)” value (SKI-1 [5]) was “A reversion of the level of the chimeric protein to that of the uncleaved form”, the IC50 (SKI-1 [1]) was ≤ 1 µM and the IC50 (SKI-1 [4]) was ~7 µM. For the same molecule, the “inhibition of ex vivo processing of proPDGF-A (in words)” value [6] was “not an effective inhibitor”.
For “α1-AT: serpin α1-antitrypsin, which does not inhibit PCs; control”, the “effect of serpin expression on presence of the HA tag at the cell surface” value (Furin-like PCs [7]) was “had no effect” and the “HA-tagged chimera at the cell surface by Western blot” value (Furin-like PCs [8]) was “no chimeric HA-tagged chimera could be detected”.
With “α1-PDX: serpin variant, a known PCs inhibitor, expressed from cDNA or adenovirus” the “increase in absorbance in CELISA, Ad:PDX compared to Ad:AT” value (Furin-like PCs [7]; PCfur-1.6 cells infected with recombinant adenovirus) was ~7 fold, the “effect of serpin expression on presence of the HA tag at the cell surface” value (Furin-like PCs [7]) was “increased the presence of the HA tag at the cell surface” and the “HA-tagged chimera at the cell surface by Western blot” value (Furin-like PCs [8]) was “the presence of the HA tag at the cell surface of these cells could be observed”.
With dec-RVKR-cmk (Decanoyl-RVKR-CH2Cl) the “conversion of cleaved chimera into uncleaved form exhibiting the HA-tag at the cell surface (FACS)” value (Furin-like PCs [9]; clone PCfur-1.6, as little as 30 μM) was “completely converted into an uncleaved form”, the “re-appearance of the HA tag at the cell surface (FACS)” value (Furin-like PCs [9]; stable HeLa cell pool, 60 μM, 6 h) was “very significant reversion of the level of the chimeric protein to that of the uncleaved form” and the “signal/noise ratio in CELISA” value (Furin-like PCs [7]; HeLa cell pool, 60 μM inhibitor) was “above 15”. For the same molecule, the “level of Golgi-associated HA tag versus ER-associated (indirect activation of NARC-1/PCSK9)” value (NARC-1/PCSK9) was “a substantial decrease in the level of the Golgi-associated HA tag versus the ER-one” and the “concentration that completely inhibits proPDGF-A processing” value ([6]; HEK293 cells, overnight, Western blot) was ~3 µM.
